Experimental data taken from PMC8399847, “Hybrid Quinolinyl Phosphonates as Heterocyclic Carboxylate Isosteres: Synthesis and Biological Evaluation against Topoisomerase 1B (TOP1B)” (Pharmaceuticals, 2021).

What follows are compounds tested on leishmanial TOP1B (LTOP1B) (assay: LTOP1B relaxation activity assay). Conditions: 100 µM of compound, 1 min.
Format: biochemical, Leishmania
Description: The inhibition of relaxation activity of LTOP1B by the compounds was tested at 100 µM. The reactions were performed for 1 min in the way described in the experimental protocols section. The percentage of inhibition was calculated by measuring the intensity of the band corresponding to the supercoiled DNA when the different DNA topoisomers were separated in an agarose gel.
Purification of leishmanial DNA topoisomerase 1B (LTOP1B) was carried out as reported previously. Shortly, LTOP1B was purified using the deficient in TOP1 activity yeast strain, EKY3 MAT α ura3–52 his3Δ20ting, from the union of the bicistronic expression vector pESC-URA to both subunits of LTOP1B. The yeast cells were grown in a yeast synthetic drop-out medium without uracil (Sigma) supplemented with 2% raffinose (w/v) to OD600: 0.8–1 and induced for 10 h with 2% galactose (w/v). After that, the cells were harvested, washed with cold TEEG buffer (50 mM Tris–HCl pH 7.4, 1 mM EDTA, 1 mM EGTA, 10% glycerol), resuspended in 15 mL of 1× TEEG buffer supplemented with 0.2 M KCl and a protease inhibitors cocktail (Thermo Scientific, Waltham, MA, USA) and lysed. Protein extract obtained was loaded on a 5 mL Heparin Sepharose column (GE Healthcare, MA, USA). LTOP1B enzyme was eluted at 4 °C with a discontinuous gradient of KCl (0.2, 0.4, 0.6 M) in TEEG buffer.
Leishmanial TOP1B activity was tested by the relaxation of supercoiled plasmid DNA assay. Each reaction contained: one unit of purified LTOP1B enzyme, 100 µM of each compound, 0.5 μg of supercoiled pSK DNA, 10 mM Tris-HCl buffer pH 7.5, 5 mM MgCl2, 0.1 mM EDTA, 15 µg/mL bovine serum albumin, and 150 mM KCl. The final volume of each reaction was 20 µL. Reaction mixtures were incubated for 1 min at 37 °C and stopped by the addition of a 4 µL loading buffer (5% sarkosyl, 0.12% bromophenol blue, 25% glycerol). The DNA topoisomers were resolved in 1% agarose gels by electrophoresis in 0.1 M Tris borate EDTA buffer (pH 8.0) at 2 V/cm for 16 h and visualized with UV illumination after ethidium bromide (0.5 μg/mL) staining. The percentage of inhibition was calculated by measuring the intensity of the band corresponding to the supercoiled DNA after separating and staining the different DNA topoisomers. This analysis was performed using the GeneTools from Syngene software (Version 4.3.8, MD, USA).

SMILES	LTOP1B Inhibition [%]
CCOP(=O)(OCC)c1cccc2c(-c3ccccc3)cc(-c3ccccc3)nc12 [7a, Diethyl (2,4-diphenylquinolin-8-yl)phosphonate]	58.87
CCOP(=O)(OCC)c1cccc2c(-c3ccccc3)cc(-c3ccc(F)cc3)nc12 [7b, Diethyl (4-Phenyl-2-(fluorophenyl)quinolin-8-il) phosphonate]	24.43
CCOP(=O)(OCC)c1cccc2c(-c3ccccc3)cc(-c3ccc(OC)cc3)nc12 [7c, Diethyl (2-(4-methoxyphenyl)-4-phenylquinolin-8-yl)phosphonate]	45.45
CCOP(=O)(OCC)c1cccc2c(-c3ccccc3)cc(-c3ccccc3OC)nc12 [7d, Diethyl (2-(2-methoxyphenyl)-4-phenylquinolin-8-yl)phosphonate]	46.41
CCOP(=O)(OCC)c1cccc2c(-c3ccccc3)cc(-c3ccc4ccccc4c3)nc12 [7e, Diethyl (2-(naphthalen-2-yl)-4-phenylquinolin-8-yl)phosphonate]	18.36
CCOP(=O)(OCC)c1cccc2c(-c3ccccc3)cc(-c3cccc4ccccc34)nc12 [7f, Diethyl (2-(naphthalen-1-yl)-4-phenylquinolin-8-yl)phosphonate]	7.5
CCOP(=O)(OCC)c1cccc2c(-c3ccc(F)cc3)cc(-c3ccccc3)nc12 [7g]	16.49
CCOP(=O)(OCC)c1cccc2c(-c3ccc(F)cc3)cc(-c3ccc(F)cc3)nc12 [7h, Diethyl (2,4-bis(4-fluorophenyl)quinolin-8-yl)phosphonate]	22.44
CCOP(=O)(OCC)c1cccc2c(-c3ccc(F)cc3)cc(-c3ccc(F)c(F)c3)nc12 [7i, Diethyl (2-(3,4-difluorophenyl)-4-(4-fluorophenyl)quinolin-8-yl)phosphonate]	54.01
CCOP(=O)(OCC)c1cccc2c(-c3ccc(C)cc3)cc(-c3ccc(F)cc3)nc12 [7j, Diethyl (2-(4-fluorophenyl)-4-(p-tolyl)quinolin-8-yl)phosphonate]	41.21
CCOP(=O)(OCC)c1cccc2c(-c3ccc(C)cc3)cc(-c3ccc(F)c(F)c3)nc12 [7k, Diethyl (2-(3,4-difluorophenyl)-4-(p-tolyl)quinolin-8-yl)phosphonate]	77.02
CC(C)OP(=O)(OC(C)C)c1cccc2c(-c3ccccc3)cc(-c3ccc(F)cc3)nc12 [7l, Diisopropyl (2-(4-fluorophenyl)-4-phenylquinolin-8-yl)phosphonate]	3.55
CC(C)OP(=O)(OC(C)C)c1cccc2c(-c3ccccc3)cc(-c3ccc(F)c(F)c3)nc12 [7m, Diisopropyl (2-(3,4-difluorophenyl)-4-phenylquinolin-8-yl)phosphonate]	5.41
CC(C)OP(=O)(OC(C)C)c1cccc2c(-c3ccc(F)cc3)cc(-c3ccc(F)cc3)nc12 [7n, Diisopropyl (2,4-bis(4-fluorophenyl)quinolin-8-yl)phosphonate]	43.31
CC(C)OP(=O)(OC(C)C)c1cccc2c(-c3ccc(F)cc3)cc(-c3ccc(F)c(F)c3)nc12 [7o, Diisopropyl (2-(3,4-difluorophenyl)-4-(4-fluorophenyl)quinolin-8-yl)phosphonate]	73.27
Cc1ccc(-c2cc(-c3ccc(F)cc3)nc3c(P(=O)(OC(C)C)OC(C)C)cccc23)cc1 [7p, Diisopropyl (2-(4-fluorophenyl)-4-(p-tolyl)quinolin-8-yl)phosphonate]	41.62
Cc1ccc(-c2cc(-c3ccc(F)c(F)c3)nc3c(P(=O)(OC(C)C)OC(C)C)cccc23)cc1 [7q, Diisopropyl (2-(3,4-difluorophenyl)-4-(p-tolyl)quinolin-8-yl)phosphonate]	52.65
CCOP(=O)(OCC)c1ccc2nc(-c3ccc(F)cc3)cc(-c3ccccc3)c2c1 [7r, Diethyl (2-(4-fluorophenyl)-4-phenylquinolin-6-yl)phosphonate]	1.94
CCOP(=O)(OCC)c1ccc2nc(-c3ccc(F)c(F)c3)cc(-c3ccccc3)c2c1 [7s, Diethyl (2-(3,4-difluorophenyl)-4-phenylquinolin-6-yl)phosphonate]	14.56
CCOP(=O)(OCC)c1ccc2nc(-c3ccc(F)cc3)cc(-c3ccc(F)cc3)c2c1 [7t, Diethyl (2,4-bis(4-fluorophenyl)quinolin-6-yl)phosphonate]	37.86
CCOP(=O)(OCC)c1ccc2nc(-c3ccc(F)c(F)c3)cc(-c3ccc(F)cc3)c2c1 [7u, Diethyl (2-(3,4-difluorophenyl)-4-(4-fluorophenyl)quinolin-6-yl)phosphonate]	50.24
CCOP(=O)(OCC)c1ccc2nc(-c3ccc(F)cc3)cc(-c3ccc(C)cc3)c2c1 [7v, Diethyl (2-(4-fluorophenyl)-4-(p-tolyl)quinolin-6-yl)phosphonate]	43.25
CCOP(=O)(OCC)c1ccc2nc(-c3ccc(F)c(F)c3)cc(-c3ccc(C)cc3)c2c1 [7x, Diethyl (2-(3,4-difluorophenyl)-4-(p-tolyl)quinolin-6-yl)phosphonate]	43.84
